From patent publication US11396509B2, “Solid forms of a toll-like receptor modulator” (Gilead Sciences, Inc., priority 2019, dated 2022)

Test: Dynamic vapor sorption (moisture sorption/desorption)
Format: physicochemical
Conditions: for change of solid form post dynamic vapor sorption experiment: after DVS experiment up to 95% RH at 25° C.; for water absorbed (dynamic vapor sorption): up to 95% RH at 25° C.
Description: Moisture sorption/desorption data were collected on a VTI SGA-100 Vapor Sorption Analyzer. NaCl and PVP were used as calibration standards. Samples were not dried prior to analysis. Sorption and desorption data were collected over a range from 5% to 95% RH at 10% RH increments under a nitrogen purge. The equilibrium criterion used for analysis was less than 0.0100% weight change in 5 minutes with a maximum equilibration time of 3 hours. Weight percentages reported in the data section are relative to the total sample mass introduced prior to equilibration at 5% RH as measured on the instrument.

Row | change of solid form post dynamic vapor sorption experiment | water absorbed (dynamic vapor sorption) | SMILES
1 | not have changed forms | about 1.1% | CCCC[C@](C)(CO)Nc1nc(N)nc2cc(F)cnc12 [Compound I Gentisic Acid, (R)-2-((2-amino-7-fluoropyrido[3,2-d]pyrimidin-4-yl)amino)-2-methylhexan-1-ol gentisic acid]
2 | not have changed forms | about 0.68% | CCCC[C@](C)(CO)Nc1nc(N)nc2cc(F)cnc12 [Compound I Hippuric Acid, (R)-2-((2-amino-7-fluoropyrido[3,2-d]pyrimidin-4-yl)amino)-2-methylhexan-1-ol hippuric acid]
3 | not have changed forms | about 1.2% | CCCC[C@](C)(CO)Nc1nc(N)nc2cc(F)cnc12.O=C(O)CCC(=O)O [Compound I Succinic Acid, (R)-2-((2-amino-7-fluoropyrido[3,2-d]pyrimidin-4-yl)amino)-2-methylhexan-1-ol succinic acid]
